One compound from patent EP0039809A2, “2-Amino-5-halogen-benzothiazoles, process for preparing them and medicines containing them” (Dr. Karl Thomae GmbH, priority 1980, dated 1981) can be followed below.

Where two headings read alike, the source gives them in different places.

In series [1] the test system is Entzündungsschmerz der Ratte. Put plainly: Analgesic effect against inflammatory pain in the rat (RANDALL-SELITTO, yeast-inflamed paw, pain threshold). Format: in vivo. The note with it: oral (gavage), male Chbb:THOM rats, dose raising the pain threshold by 50 % versus controls. On the procedure: 1) Wirkung gegen den Entzündungsschmerz der Ratte
Die Versuchsanordnung entsprach der von RANDALL-SELITTO (Arch. int. Pharmacodyn. 111, 409 (1957) angegebenen.
Männliche Chbb:THOM-Ratten mit einem Gewicht zwischen 100 und 130 g erhielten eine subplantare Injektion von 0,1 ml einer 5%igen Suspension von Hefezellen in 5,55 %iger Glukoselösun^g in eine Hinterpfote. […] 2 1/4 Stunden nach der Injektion des Phlogisticums erhielten die Tiere verschiedene Dosen der Prüfsubstanz als Verreibung in 1 %iger Methylzellulose (1 ml/100 g Tier) per Schlundsonde beigebracht. Kontrolltiere erhielten entsprechende Volumina des Vehikels. ― 90 bzw. 45 min nach Applikation der Prüfsubstanz (d.h. 3 Stunden nach der subplantaren Injektion der Hefesuspension) wurde bei den Ratten die Schmerzschwelle in g Auflagedruck/Pfote bestimmt.
Aus der nach den verschiedenen Dosen der Prüfsubstanz ge- i messenen Schmerzschwelle wurde nach linearer Regressionsanalyse nach LINDER (Statistische Methoden, 4. Aufl. pp. 148-162, Birkhäuser, Basel 1964) eine ED50 mit den Vertrauensgrenzen nach FIELLER (Quart. J. Pharm. Pharmacol. 17, 117 (1944) als jene Dosis ermittelt, die eine Anhebung der Schmerzschwelle um 50 % gegenüber der der Kontrollen bewirkte.

Series [2] relates to Körpertemperatur der Ratte. Put plainly: Effect on body temperature of the rat (rectal temperature lowering). The conditions noted are these: oral (gavage), Chbb:THOM rats, dose lowering body temperature by 1,5°C, read-out: Körpertemperatursenkg. Ratte [ED-1,5°C]. Type of series: in vivo. How it is done: 3. Wirkung auf die Körpertemperatur der Ratte
Die Prüfung der temperatursenkenden Wirkung erfolgte durch; die Kontrolle des Verlaufes der rektal gemessenen Körper- temperatur von Chbb:THOM-Ratten mit einem Gewicht zwischen 125-150 g über im Rektum verweilende Thermoelemente. Die Prüfsubstanz wurde als Verreibung in 1 %iger Methylzellulose (1,0 ml/100 g Tier) per Schlundsonde beigebracht. Aus den nach Gabe der verschiedenen Dosen der Prüfsubstanz gewonnenen Werten für die mittlere maximale Temperatursenkung wurde nach linearer Regressionsanalyse nach LINDER (s.o.) eine ED-1,5°C als jene Dosis berechnet, die eine Senkung der Körpertemperatur um 1,5°C bewirkte.

In another series the test system is Wärmeschmerz der Maus. Description: Analgesic effect against heat pain in the mouse (hot plate, modified CHEN and BECKMAN). Type of series: in vivo. The note with it: oral (gavage), male Chbb:NMRI(SPF) mice, plate 52°C, dose giving 100 % prolongation of reaction time, read-out: Analgesie Maus "hot plate" [ED100]. How it is done:
2) Wirkung gegen den Wärmeschmerz der Maus
Die Prüfung erfolgte mit Hilfe einer Modifikation der Ver- suchsanordnung nach CHEN u. BECKMAN (Science 113, 631 (1951) an männlichen Chbb:NMRI(SPF)-Mäusen mit einem mittleren Gewicht von 20 g. Die "heiße Platte" bestand aus Aluminium und hatte eine Oberflächentemperatur von 52°C. ;
Die Prüfsubstanz wurde als Verreibung in 1 %iger-Methylzellulose (0,1 ml/10 g maus) per Schlundsonde beigebracht. Vor der Behandlung mit Prüfsubstanz wurden die Tiere im Abstand von 30 min. zweimal auf die heiße Platte gesetzt. Es wurde ihre individuelle Reaktionszeit ermittelt. Nach Gabe der Prüfsubstanz wurde in Abständen von 30 min. die Reaktionszeit erneut gemessen.
Aus der mit den verschiedenen Dosen der Prüfsubstanz erzielten gemittelten maximalen Verlängerung der Reaktionszeit wurde nach linearer Regressionsanalyse nach LINDER (s.o.) eine ED100 mit den Vertrauensgrenzen nach FIELLER (s.o.) als die Dosis berechnet, die zu einer 100 %igen Verlängerung der Reaktionszeit führte.

Series [3] can be described thus: Acute toxicity in the mouse. The conditions noted are these: in vivo, oral (gavage), Chbb:NMRI(SPF) mice of both sexes, deaths within 14 days, read-out: Akute Toxizität Maus [LD50]. On the procedure: 4. Akute Toxizität an der Maus
Die Bestimmung der akuten Toxizität erfolgte an Chbb:NMRI (SPF)-Mäusen beider Geschlechter mit einem mittleren Gewicht von 20 g. Die Prüfsubstanz wurde als Verreibung in 1 %iger Methylzellulose (0,5 ml/10 g Tier) per Schlundsonde verabfolgt. Die Berechnung der LD50 erfolgte (soweit möglich) nach LITCHFIELD u. WILCOXON (J. Pharmacol. exp. Therap. 96, 99 (1949)) aus dem Prozentsatz der Tiere, die nach den verschiedenen Dosen innerhalb von 14 Tagen verstarben.

The ED50 is the dose that gives a 50% effect, or the effect in half of the subjects. The LD50 is the dose expected to kill half of the subjects tested.

Regarding `COc1cc2sc(N)nc2cc1Cl` [2-Amino-5-chlor-6-methoxy-benzothiazol], the ED50 in series [1] (0.75 h, 45 min after application, read-out: Analgesie Ratte nach RANDALL-SELITTO 45 min nach Appl. [ED50]) stood at 79 mg/kg; in series [1] (1.5 h, 90 min after application, read-out: Analgesie Ratte nach RANDALL-SELITTO 90 min nach Appl. [ED50]), 80 mg/kg. Also, the ED (-1.5 degC) in series [2] was determined as 101 mg/kg. The ED100 in the series with Wärmeschmerz der Maus was 144 mg/kg. The LD50 at 336 h in series [3] was found to be 3050 mg/kg.
